# Measured values from patent US4317824A, “Derivatives of quinoxaline-1,4-dioxides” (Abic, Ltd., priority 1976, dated 1982).
# Legend:
# E. Coli [1] = assay: U. Tract infections in mice (E. Coli); assay type: in vivo; conditions: U. Tract infections (E. Coli), 2,5 mg × 10 days
# Description: (§1) Some compounds of general formula Id were tested also in vivo.
# [2] = Acute oral LD50 in chicks; conditions: chicken, in vivo
# St. aur = assay: Systemic St. aur infection in mice; assay type: in vivo; conditions: systemic St. aur infection, 2,5 mg × 2 per day
# Description: as §1
# Mycoplasma gallisept = assay: antimicrobial activity, minimal inhibitory concentration, Mycoplasma gallisept; assay type: cell-based
# Description: (§2) The antimicrobial activity of some compounds according to the present invention was measured and the results are shown in the following Tables. The activity is indicated as the minimal inhibitory concentration in μg/ml.
# Acute oral LD50 in mice = conditions: mouse, in vivo
# B. Subtilis = assay: antimicrobial activity, minimal inhibitory concentration, B. Subtilis; assay type: cell-based; conditions: Bacillus subtilis
# Description: as §2
# Salm. Typh. = assay: antimicrobial activity, minimal inhibitory concentration, Salm. Typh.; assay type: cell-based; conditions: read-out: minimal inhibitory concentration
# Description: as §2
# E. Coli [3] = assay: Systemic E. Coli infection in mice; assay type: in vivo; conditions: systemic E. Coli infection, 1,25 mg × 2 per day
# Description: as §1
# Staph. Aur. = assay: antimicrobial activity, minimal inhibitory concentration, Staph. Aur.; assay type: cell-based
# Description: as §2
# [4] = growth promotion experiment with male turkeys for 4 weeks; assay type: in vivo; conditions: P<0.001
# Source text: The results were statistically significant (P<0.001).
# E. Coli [5] = assay: antimicrobial activity, minimal inhibitory concentration, E. Coli; assay type: cell-based; conditions: Escherichia coli
# Description: as §2
smiles,measurement,setting,value
"CCOC(=O)NNC(=NO)c1c[n+]([O-])c2ccccc2[n+]1[O-] [Example 35, 2-(carbazinic acid ethyl ester)-carboxaldoxime-quinoxaline-1,4-dioxide]",Protection,E. Coli [1],+ (indicates protection >80%)
same,LD50,[2],1500 mg/kg
same,Protection,St. aur,+ (indicates protection >80%)
same,MIC,Mycoplasma gallisept,10 to 25 mg/L
same,LD50,Acute oral LD50 in mice,4950 mg/kg
same,MIC,B. Subtilis,10 mg/L
same,MIC,Salm. Typh.,10 to 25 mg/L
same,Protection,E. Coli [3],+ (indicates protection >80%)
same,MIC,Staph. Aur.,10 mg/L
same,increase in weight gain,[4]; 30 g/ton in the feed,18.7%
same,increase in weight gain,[4]; 50 g/ton in the feed,18.5%
same,increase in weight gain,[4]; 75 g/ton in the feed,16%
same,MIC,E. Coli [5],40 to 50 mg/L
